This passage reports photoluminescence quantum yield results from the Deep4Chem optical property database.

The data set can be described thus: photoluminescence quantum yield (fraction); solvent given as SMILES.
The mark [1] stands for this setting: in O=P(c1ccccc1)(c1ccccc1)c1ccccc1Oc1ccccc1P(=O)(c1ccccc1)c1ccccc1.

The structures appear in SMILES notation.

Compound `CCCCCN(c1ccccc1)c1ccc2c(c1)C(CC)(CC)c1cc(/C=C/c3ccc(/C=C(\C#N)C(=O)O)s3)ccc1-2` returned a photoluminescence quantum yield (in C1CCOC1) of 0.405; a photoluminescence quantum yield (in C1COCCO1) of 0.969; a photoluminescence quantum yield (in CC#N) of 0.025; a photoluminescence quantum yield (in CC(C)=O) of 0.223; a photoluminescence quantum yield (in CCOC(C)=O) of 0.801; a photoluminescence quantum yield (in CN(C)C=O) of 0.651. The photoluminescence quantum yield stood at 0.622 (in CS(C)=O) and 0.005 (in ClCCl).

`CC1=[N+]2C(=C(c3ccc(Br)cc3)c3ccc(C)n3[B-]2(F)F)C=C1c1cc2n(c1)[B-](F)(F)[N+]1=CC=CC1=C2c1c(C)cc(C)cc1C` displayed a photoluminescence quantum yield (in C1CCCCC1) of 0.85 and a photoluminescence quantum yield (in CCOC(C)=O) of 0.21.

`Fc1cc(-c2ccc(-c3nc4cc(Br)ccc4[nH]3)cc2)ccc1-c1ccc(-c2nc3cc(Br)ccc3[nH]2)cc1`: where the note is “in CN(C)C=O”, the photoluminescence quantum yield worked out at 0.48.

Take `Clc1cc(Cl)c([C](c2c(Cl)cc(Cl)cc2Cl)c2c(Cl)cc(-n3c4ccccc4c4ccccc43)cc2Cl)c(Cl)c1`: the photoluminescence quantum yield reads like this: (in C1CCCCC1) 0.64; (in ClC(Cl)Cl) 0.06.

`COc1cc(/C=C/c2ccncc2)c(OC)cc1C=O`: the photoluminescence quantum yield runs as follows: (in C1CCOC1) 0.11; (in CC#N) 0.17; (in CN(C)C=O) 0.15; (in Cc1ccccc1) 0.09; (in ClCCl) 0.26.

With `F[B-]1(F)n2c(cc3c2-c2ccccc2CC3)C(c2ccc(I)cc2)=C2C=C3CCc4ccccc4C3=[N+]21`, under “in ClC(Cl)Cl”, the photoluminescence quantum yield amounted to 0.38.

As to `O=P1(c2ccccc2)C(c2cc(C(F)(F)F)cc(C(F)(F)F)c2)=Cc2c3ccc4cccc5ccc(c6cc(-c7ccc(N(c8ccccc8)c8ccccc8)cc7)n1c26)c3c45` (stereo unspecified), the photoluminescence quantum yield reads like this: (in C1CCCCC1) 0.44; (in C1CCOC1) 0.17; (in C1COCCO1) 0.48; (in CC#N) 0.004; (in CC(C)=O) 0.11; (in CO) 0.004. The photoluminescence quantum yield stood at 0.49 (in Cc1ccccc1), 0.49 (in ClC(Cl)Cl) and 0.23 (in ClCCl).

For the setting “in ClCCl”, `C(=C\c1nc2c(c(N3CCOCC3)n1)CCCC2)/c1ccccc1` yielded a photoluminescence quantum yield of 0.023.

On to `COc1ccc(-c2oc3cccc4c5c(-c6ccc(OC)cc6)/c(=N/S(=O)(=O)C(F)(F)F)oc6cccc(c2c34)c65)cc1`, for which the photoluminescence quantum yield (in ClC(Cl)Cl) was found to be 0.96.

`N#Cc1c(-n2c3ccc(Br)cc3c3cc(Br)ccc32)c(-n2c3ccc(Br)cc3c3cc(Br)ccc32)c(C#N)c(-n2c3ccc(Br)cc3c3cc(Br)ccc32)c1-n1c2ccc(Br)cc2c2cc(Br)ccc21` displayed a photoluminescence quantum yield (in Cc1ccccc1) of 0.45.

On to `Cn1cccc1-c1ccc(C#N)cc1`, for which the photoluminescence quantum yield was determined as 0.94 (in C1CCOC1); 0.51 (in CC#N); 0.92 (in CCCCCC); 1 (in CCCCOCCCC); 0.98 (in CCOCC).

For the compound `CN(C)c1ccc2nc(/C=C/c3ccccc3)c(=O)oc2c1`, the photoluminescence quantum yield is, setting by setting: (in C1CCCCC1) 0.77; (in C1COCCO1) 0.79; (in CC#N) 0.54; (in CC(C)=O) 0.71; (in CCCCCCC) 0.74; (in CCO) 0.55. Further, the photoluminescence quantum yield (in CCOC(C)=O) was 0.75; the photoluminescence quantum yield (in CN(C)C=O) worked out at 0.66; the photoluminescence quantum yield (in CS(C)=O) is 0.61; the photoluminescence quantum yield (in Cc1ccccc1) is 0.77; the photoluminescence quantum yield (in ClC(Cl)Cl) came out at 0.81; the photoluminescence quantum yield (in ClCCl) was determined as 0.81.

In the case of `c1cc2ccc3cc4[nH]c(-c5cc6c(cc7ccc8cccc9ccc6c7c89)[nH]5)cc4c4ccc(c1)c2c34`, the photoluminescence quantum yield (in C1CCOC1) was 0.5.

Take `c1ccc2cc3cc(-c4cc(-c5nccs5)nc(-c5nccs5)c4)ccc3cc2c1`: the photoluminescence quantum yield came to 0.564 (in CC#N), 0.108 (in CCCCCC), 0.194 (in CO) and 0.433 (in ClC(Cl)Cl).

As for `COc1ccc(C2=C(Br)C(c3ccccc3)=[N+]3C2=Nc2c(-c4ccc(OC)cc4)c(Br)c(-c4ccccc4)n2[B-]3(F)F)cc1`, for the setting “in Cc1ccccc1”, the photoluminescence quantum yield turned out to be 0.01.

For the setting “in Cc1ccccc1”, `CCCC1(CCC)c2cc(-c3ccc(-c4ccccc4)cc3)ccc2-c2ccc(-c3ccc4c(c3)C(CCC)(CCC)c3cc(-c5ccc(-c6ccccc6)cc5)ccc3-4)cc21` had a photoluminescence quantum yield of 0.92.

As to `Cn1cc(-c2nc3ccccc3nc2C#Cc2ccccc2)c2ccccc21`, the photoluminescence quantum yield (in ClCCl) was 0.16.

Consider `Cc1nc(-c2ccc(N3c4ccccc4C(c4ccccc4)(c4ccccc4)c4ccccc43)cc2)cc(-c2ccc(N3c4ccccc4C(c4ccccc4)(c4ccccc4)c4ccccc43)cc2)n1`, for which the photoluminescence quantum yield is, setting by setting: (in Cc1ccccc1) 0.54; (in O=P(c1ccccc1)(c1ccccc1)c1ccc2oc3ccc(P(=O)(c4ccccc4)c4ccccc4)cc3c2c1) 0.92.

The compound `CCCCN1C(=O)c2ccc3c4ccc5c6c(cc(-c7ccc(C(=C(c8ccccc8)c8ccccc8)c8ccccc8)cc7)c(c7ccc(c2c37)C1=O)c64)C(=O)N(CCCC)C5=O` gave a photoluminescence quantum yield (in ClCCl) of 0.022.

The compound `c1ccc2c(c1)Oc1ccccc1N2c1ccc2c(c1)c1ccccc1n1ccnc21` returned a photoluminescence quantum yield under setting [1] of 0.27.

Consider `COC(=O)c1cc2c(cc3ccc4cccc5ccc2c3c45)[nH]1`, for which the photoluminescence quantum yield (in C1CCOC1) was determined as 0.82.

`COC(=O)c1ccc2ccc3cccc4ccc1c2c34` returned a photoluminescence quantum yield (in C1CCOC1) of 0.68; a photoluminescence quantum yield (in CC#N) of 0.79; a photoluminescence quantum yield (in CCCCCC) of 0.63; a photoluminescence quantum yield (in CCO) of 0.81; a photoluminescence quantum yield (in CN(C)C=O) of 0.74; a photoluminescence quantum yield (in CO) of 0.69. For the same compound, the photoluminescence quantum yield by setting is: (in Cc1ccccc1) 0.76; (in ClCCl) 0.56.

In turn, `O=C1c2ccc3c4c(-c5ccccc5)cc5c6c(ccc(c7c(-c8ccccc8)cc(c2c37)C(=O)N1C1CCCCC1)c64)C(=O)N(C1CCCCC1)C5=O` had a photoluminescence quantum yield (in ClC(Cl)Cl) of 0.186.

In the case of `C(#Cc1ccccc1)C(C#Cc1ccccc1)=Cc1ccc2cc(C=C(C#Cc3ccccc3)C#Cc3ccccc3)ccc2c1`, the photoluminescence quantum yield (in ClC(Cl)Cl) is 0.49.

`c1cnc2c(c1)c1nc(-c3ccc(-c4nc5c6cccnc6c6ncccc6c5[nH]4)cc3)[nH]c1c1cccnc12` gave a photoluminescence quantum yield (in CS(C)=O) of 0.84.

In the case of `CC1(C)C(/C=C/c2cc3ccc(O)cc3oc2=O)=[N+](CCCS(=O)(=O)[O-])c2ccc(S(=O)(=O)O)cc21`, the photoluminescence quantum yield worked out at 0.031 (in CCO), 0.012 (in CS(C)=O) and 0.013 (in O).

As to `CCN(CC)c1ccc2cc(-c3csc(N)c3C#N)c(=O)oc2c1`, the photoluminescence quantum yield by setting is: (in C1CCOC1) 0.62; (in CO) 0.02; (in CS(C)=O) 0.04; (in Cc1ccccc1) 0.74; (in ClCCl) 0.6.

`c1ccc(-c2c3ccccc3c(-c3cncnc3)c3ccccc23)cc1`: the photoluminescence quantum yield is 0.4 (in CCO) and 0.51 (in ClCCl).

As for `O=c1c2ccc(-c3ccc(N(c4ccccc4)c4ccccc4)cc3)cc2sc2cccc(-c3ccc(N(c4ccccc4)c4ccccc4)cc3)c12`, where the note is “in c1ccc2c(c1)c1ccccc1n2-c1ccc(-c2ccc(-n3c4ccccc4c4ccccc43)cc2)cc1”, the photoluminescence quantum yield turned out to be 0.025.

Take `Nc1cccc2c1C(=O)NC2=O`: the photoluminescence quantum yield is, setting by setting: (in C1CCOC1) 0.97; (in CCO) 0.74; (in CN(C)C=O) 0.66.

Where the note is “in C1CCCCC1”, `Cc1cc(C)cc(C)c1` gave a photoluminescence quantum yield of 0.27.

For the setting “in ClCCl”, `Cc1cc(=O)cc(-c2ccc(-c3nc4ccccn4c3NC3CCCCC3)cc2)o1` showed a photoluminescence quantum yield of 0.019.

With `COc1ccc(NC(=O)C(C(=O)Nc2ccc(OC)cc2)C(c2ccccc2O)c2c(C)[nH]c3ccccc23)cc1` (stereo unspecified), the photoluminescence quantum yield runs as follows: (in CO) 0.0094; (in CS(C)=O) 0.013.

Regarding `N#Cc1c(N2CCCCC2)cc(-c2cccs2)c2c1-c1cccc3cccc-2c13`, the photoluminescence quantum yield (in O) is 0.3.

Turning to `CC(=O)[B-]1(C(C)=O)OC(c2ccccc2)=CC(c2ccccc2)=[O+]1`, the photoluminescence quantum yield is, setting by setting: (in CC#N) 0.8; (in ClC(Cl)(Cl)Cl) 0.9.

Consider `CC1(C)c2ccccc2N(c2ccccc2)c2ccc(S(=O)(=O)c3ccc4c(c3)C(C)(C)c3ccccc3N4c3ccccc3)cc21`, for which the photoluminescence quantum yield under setting [1] was determined as 0.5.

Turning to `Cc1ccc(/C=C/c2ccccc2-[n+]2cc([O-])on2)cc1`, the photoluminescence quantum yield (in C1CCCCC1) amounted to 0.0007 and the photoluminescence quantum yield (in CC#N) came out at 0.017.

With `CCOC(=O)c1sc2nc(-c3ccc(OC)cc3)c(C)c(C#N)c2c1N`, for the setting “in c1ccccc1”, the photoluminescence quantum yield came to 0.064.

`CCN(CC)c1ccc2n1[B-](F)(F)[N+]1=CC(/C=C/C(=O)OC(C)(C)C)=CC1=C2c1c(C)cc(C)cc1C` displayed a photoluminescence quantum yield (in ClCCl) of 0.26.

`Cc1cccn2c1cc1c3ccccc3nc(-c3cccs3)c12` came in with a photoluminescence quantum yield (in CS(C)=O) of 0.2.

In the case of `CC(C)[Si](C#Cc1ccc(C#Cc2c3cc4ccccc4cc3c(C#C[Si](C(C)C)(C(C)C)C(C)C)c3cc4ccccc4cc23)cc1)(C(C)C)C(C)C`, the photoluminescence quantum yield (in ClCCl) is 0.12.

Take `CCOC(=O)c1ccc(C2CC(c3cccc4ccccc34)=NN2c2ccc(F)cc2)cc1` (stereo unspecified): under “in ClCCl”, the photoluminescence quantum yield is 0.191.

`c1ccc(C2=C(c3ccccc3)c3cccc4c5c(cc(c34)O2)=NC2CCCCC2N=5)cc1` (stereo unspecified) yielded a photoluminescence quantum yield (in ClCCl) of 0.52.

Regarding `COc1cc(N(c2ccccc2)c2ccccc2)ccc1C=C(C#N)C#N`, the photoluminescence quantum yield was determined as 0.012 (in C1COCCO1); 0.005 (in CC#N); 0.013 (in CC(C)=O); 0.017 (in CCOC(C)=O); 0.009 (in CN(C)C=O); 0.006 (in CO). Also, the photoluminescence quantum yield runs as follows: (in Cc1ccccc1) 0.01; (in ClC(Cl)Cl) 0.023; (in ClCCl) 0.016.
